According to ChEMBL document CHEMBL1201862, “PubChem BioAssay data set” (2004):
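Method: 48-hour compound exposure of cells in 96-well plates, five concentrations, linear interpolation of endpoints. Here, GI50 denotes the concentration required for 50% inhibition of growth.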 The source made the active and inactive calls. Rule as the data show it: active = GI50 up to about 1.1 µM and inactive = higher.

How the values were obtained:
Assay in all cases: NCI anticancer screen, dose series, 48 h
[1] = tested on: 786-0
[2] = tested on: A498
[3] = tested on: A549
[4] = tested on: ACHN
[5] = tested on: BT-549
[6] = tested on: CAKI-1
[7] = tested on: CCRF-CEM
[8] = tested on: COLO 205
[9] = tested on: DU-145
[10] = tested on: EKVX
[11] = tested on: HCC 2998
[12] = tested on: HCT-116
[13] = tested on: HCT-15
[14] = tested on: HL-60
[15] = tested on: HOP-62
[16] = tested on: HOP-92
[17] = tested on: HT-29
[18] = tested on: Hs-578T
[19] = tested on: IGROV-1
[20] = tested on: K562
[21] = tested on: KM12
[22] = tested on: LOX IMVI
[23] = tested on: M14
[24] = tested on: MCF7
[25] = tested on: MDA-MB-231
[26] = tested on: MDA-MB-435
[27] = tested on: MDA-N
[28] = tested on: MOLT-4
[29] = tested on: Malme-3M
[30] = tested on: NCI-H226
[31] = tested on: NCI-H23
[32] = tested on: NCI-H460
[33] = tested on: NCI-H522
[34] = tested on: NCI/ADR-RES
[35] = tested on: OVCAR-3
[36] = tested on: OVCAR-4
[37] = tested on: OVCAR-5
[38] = tested on: OVCAR-8
[39] = tested on: PC-3
[40] = tested on: RXF 393
[41] = tested on: SF-268
[42] = tested on: SF-295
[43] = tested on: SK-MEL-28
[44] = tested on: SK-MEL-2
[45] = tested on: SK-MEL-5
[46] = tested on: SK-OV-3
[47] = tested on: SN12C
[48] = tested on: SNB-19
[49] = tested on: SNB-75
[50] = tested on: SR
[51] = tested on: SW-620
[52] = tested on: T47D
[53] = tested on: TK-10
[54] = tested on: U-251
[55] = tested on: UACC-257
[56] = tested on: UACC-62
[57] = tested on: UO-31
[58] = tested on: RPMI-8226
[59] = tested on: SF-539

Measured: GI50

Oc1ccc(-c2cn3cc(C(F)(F)F)ccc3n2)cc1
35.6 µM: [13]
inactive: [1] 30.7 µM | [2] 70.1 µM | [3] 44.8 µM | [4] 12.1 µM | [5] 56.4 µM | [6] 60.1 µM | [7] 15.9 µM | [8] 45.2 µM | [9] 30.6 µM | [10] 56.2 µM | [11] 22.1 µM | [12] 49.1 µM | [14] 9.18 µM | [15] > 100 µM | [16] > 100 µM | [17] 34.8 µM | [18] > 100 µM | [19] 63.2 µM | [20] 35.2 µM | [21] 43.3 µM | [22] 43.2 µM | [23] 51.3 µM | [24] 26.7 µM | [25] > 100 µM | [26] 41.2 µM | [27] 43.7 µM | [28] 26.5 µM | [29] 71.8 µM | [30] 74.3 µM | [31] 38 µM | [32] 32.1 µM | [33] 17.3 µM | [34] 29.9 µM | [35] 41.3 µM | [36] 55.7 µM | [37] 76.9 µM | [38] 37.8 µM | [39] 46.9 µM | [40] 31.6 µM | [41] 89.1 µM | [42] 45.7 µM | [43] > 100 µM | [44] 62.2 µM | [45] 32.1 µM | [46] > 100 µM | [47] 72.3 µM | [48] > 100 µM | [49] 6.84 µM | [50] 26.2 µM | [51] 75.5 µM | [52] 18.3 µM | [53] 41.5 µM | [54] 41.1 µM | [55] 29.6 µM | [56] 31.7 µM | [57] 61.5 µM

CC(C(=O)O)C(C)(O)C(=O)O (configuration not stated)
> 100 µM: [13]
inactive: [1] > 100 µM | [2] > 100 µM | [3] > 100 µM | [5] > 100 µM | [6] > 100 µM | [7] > 100 µM | [8] > 100 µM | [9] > 100 µM | [10] > 100 µM | [11] > 100 µM | [12] > 100 µM | [14] > 100 µM | [17] > 100 µM | [18] > 100 µM | [19] > 100 µM | [20] > 100 µM | [21] > 100 µM | [22] > 100 µM | [23] > 100 µM | [24] > 100 µM | [25] > 100 µM | [26] > 100 µM | [27] > 100 µM | [28] > 100 µM | [29] > 100 µM | [30] > 100 µM | [31] > 100 µM | [32] > 100 µM | [33] > 100 µM | [34] > 100 µM | [35] > 100 µM | [36] > 100 µM | [37] 61.8 µM | [38] > 100 µM | [39] > 100 µM | [58] > 100 µM | [40] > 100 µM | [41] > 100 µM | [59] > 100 µM | [43] > 100 µM | [44] > 100 µM | [45] > 100 µM | [46] > 100 µM | [47] > 100 µM | [48] > 100 µM | [49] > 100 µM | [50] > 100 µM | [51] > 100 µM | [52] > 100 µM | [53] > 100 µM | [54] > 100 µM | [55] > 100 µM | [56] > 100 µM | [57] > 100 µM
